From patent publication US7700647B2, “Fluorinated bis (phthalic anhydride) and method for producing the same” (priority 2003, dated 2010)

Columns and labels:
Format in all cases: physicochemical
[1] = Absorbance of acetone solution measured with a spectrophotometer (coloration); conditions: wavelength 360 nm; 0.5 g dissolved in acetone to 10 g total
Method: 0.5 g of 4,4′-[(2,3,5,6-tetrafluoro-1,4-phenylene)-bis(oxy)]bis(3,5,6-trifluorophthalic anhydride) obtained in the above-mentioned Preparation Example 4 was dissolved in acetone and adjusted so as to give 10 g of the total amount of the mixture. The absorbance in the visible region of this solution was measured with a spectrophotometer (UV-3100 manufactured by Shimadzu Corporation). The absorbance of the same compound prepared in the above-mentioned Comparative Preparation Example 2 was similarly measured.

[2] = Specific surface area by Brunauer-Emmerit-Teller (BET) method; conditions: Model NOVA 2000
Method: Each specific surface area of 4,4′-[(2,3,5,6-tetrafluoro-1,4-phenylene)bis(oxy)]bis(3,5,6-trifluorophthalic anhydride) obtained in the above-mentioned Preparation Example 4 and Comparative Preparation Example 2 was measured.
The specific surface area was measured using a Brunauer-Emmerit-Teller (BET) method (Model NOVA 2000 manufactured by Quantachrome Corporation).

[3] = Time to become a homogeneous solution when stirred with diamine in N,N-dimethylacetamide; conditions: stirred at room temperature
Method: Into a 100 milliliter—three necked flask were charged 14.51 g (24.92 mmol) of 4,4′-[(2,3,5,6-tetrafluoro-1,4-phenylene)bis(oxy)]bis(3,5,6-trifluorophthalic anhydride) obtained in Preparation Example 4, 4.48 g (24.92 mmol) of 1,3-diamino-2,4,5,6-tetrafluorobenzene and 31 g of N,N-dimethylacetamide. As this mixture was stirred at room temperature in an atmosphere of nitrogen, it took about 30 minutes before it became a homogeneous solution. By leaving standing further for 4 days, a light-yellow polyamic acid solution having a high viscosity was obtained.
Raw materials were charged into a three necked flask in the same manner as that of the above-mentioned Preparation Example 5 except for using a substance obtained in the above Comparative Preparation Example 2 instead of a substance obtained in the above Preparation Example 4 as the 4,4′-[(2,3,5,6-tetrafluoro-1,4-phenylene)bis(oxy)]bis(3,5,6-trifluorophthalic anhydride). As this mixture was stirred at room temperature as with the above-mentioned Preparation Example 5, it took about 1 hour before it became a homogeneous solution. By leaving standing further for 4 days, a yellow polyamic acid solution was obtained, but its viscosity was low. When its weight-average molecular weight was measured in the same manner as that of the above-mentioned Preparation Example 5, it was 6.04×10^4.

Structure (SMILES)	Molar absorption coefficient [1] [L/mol/cm]	Specific surface area [2] [m^2/g]	Time before mixture became a homogeneous solution ([3]; 14.51 g with 4.48 g 1,3-diamino-2,4,5,6-tetrafluorobenzene in 31 g N,N-dimethylacetamide, nitrogen)	Time before mixture became a homogeneous solution ([3]; same manner as Preparation Example 5, N,N-dimethylacetamide)
O=C1OC(=O)c2c(F)c(Oc3c(F)c(F)c(Oc4c(F)c(F)c5c(c4F)C(=O)OC5=O)c(F)c3F)c(F)c(F)c21 [Preparation Example 4, 4,4′-[(2,3,5,6-tetrafluoro-1,4-phenylene)bis(oxy)]bis(3,5,6-trifluorophthalic anhydride)]	0.258	4.403	about 30 minutes	
O=C1OC(=O)c2c(F)c(Oc3c(F)c(F)c(Oc4c(F)c(F)c5c(c4F)C(=O)OC5=O)c(F)c3F)c(F)c(F)c21 [Comparative Preparation Example 2, 4,4′-[(2,3,5,6-tetrafluoro-1,4-phenylene)bis(oxy)]bis(3,5,6-trifluorophthalic anhydride)]	0.672	2.869		about 1 hour
